From patent US5506354A, “Imidazolylpiperazinyl steroids” (The Upjohn Company, priority 1992, dated 1996)
Where a name gives a salt, the structure may show the parent alone.

Tested on: arachidonic acid
Experiment: Arachidonic Acid Antagonism Assay (AAAA), LD50 of sodium arachidonate
Assay type: in vivo, Charles River male CF-1 mice
Conditions: 100 mg/kg; test compound IV
Method: Since these metabolites contribute to the pathological problems associated with stroke, spinal trauma and head injury, compounds which antagonize arachidonic acid are useful in treating stroke, spinal trauma and head injury.
While not necessary to determine arachidonic acid antagonism, the above assay has been modified as follows: Charles River male CF-1 mice weighing 18-22 g are treated IV with the test compound dissolved in 1.0% Tween-80 and 0.1% hydrochloric acid in distilled water, 0.2 ml total volume. Fifteen minutes later sodium arachidonate (90% pure) in physiological (normal) saline is injected into the tail vein. The LD50 is measured using the Spearman-Karber method with a log dose interval of 0.05 (N=6). Compounds which elevate the LD50 outside of the 95% confidence interval of the control LD50 are considered to be "active".

| SMILES | % of Control LD50 100 mg/kg |
| --- | --- |
| CCN(CC)c1cc(N2CCN(C(=O)[C@@]3(O)CC[C@H]4[C@@H]5CCC6=CC(=O)CC[C@]6(C)[C@H]5CC[C@@]43C)CC2)nc(N(CC)CC)n1 [Example 57] | 124% |

Same assay, conditions: test compound IV 15 min before sodium arachidonate; LD50 outside 95% confidence interval of control

| SMILES | arachidonic acid antagonism (activity in words) |
| --- | --- |
| C[C@]12C=CC(=O)C=C1CC[C@@H]1[C@@H]2[C@@H](O)C[C@@]2(C)[C@H]1CC[C@]2(O)C(=O)CN1CCN(c2ccccn2)CC1 [Example 25, 11.uparw.,17α-dihydroxy-21-[4-(2-pyridinyl)-1-piperazinyl]pregna-1,4-diene-3,20-dione dihydrochloride] | demonstrate arachidonic acid antagonism |
| CCN(CC)c1cc(N2CCN(CC(=O)[C@@]3(O)CC[C@H]4[C@@H]5CCC6=CC(=O)C=C[C@]6(C)C5=CC[C@@]43C)CC2)nc(N(CC)CC)n1.Cl.Cl.O [Example 75, 21-[4-[2,6-bis(diethylamino)4-pyrimidinyl]-1-piperazinyl]-17α-hydroxypregna-1,4,9(11)-triene-3,20-dione dihydrochloride hydrate] | demonstrate arachidonic acid antagonism |
| C[C@]12CCC(=O)C=C1CC[C@@H]1C2=CC[C@@]2(C)[C@H]1CC[C@]2(O)C(=O)CN1CCOCC1 [Example 93, 17α-hydroxy-21-(4-morpholino)-pregna4,9(11)-diene-3,20-dione (E)-2-butanedioate (1:1) salt] | demonstrate arachidonic acid antagonism |
| CN1CCN(c2cc(N3CCN(CC(=O)[C@@]4(O)CC[C@H]5[C@@H]6CCC7=CC(=O)CC[C@]7(C)C6=CC[C@@]54C)CC3)nc(N3CCN(C)CC3)n2)CC1 [Example 19, 17α-Hydroxy-21-[4-[2,6-bis(4-methyl-1-piperazinyl)A-pyrimidinyl]-1-piperazinyl]-pregna-4,9(11)-diene-3,20-dione methanesulfonate hydrate] | demonstrate arachidonic acid antagonism |
| C=CCNc1nc(NCC=C)nc(N2CCN(CC(=O)[C@@]3(O)CC[C@H]4[C@@H]5CCC6=CC(=O)CC[C@]6(C)C5=CC[C@@]43C)CC2)n1.Cl.Cl.O [Example 60, 17α-hydroxy-21-[4-[4,6-bis(2-propenylamino)-1,3,5-triazin-2-yl]-1-piperazinyl]pregna-4,9(11)-diene-3,20-dione dihydrochloride hydrate] | demonstrate arachidonic acid antagonism |
| CCN(CC)c1cc(N2CCN(C(=O)[C@@]3(O)CC[C@H]4[C@@H]5CCC6=CC(=O)CC[C@]6(C)[C@H]5CC[C@@]43C)CC2)nc(N(CC)CC)n1 [Example 57] | demonstrate arachidonic acid antagonism |
| C[C@]12C=CC(=O)C=C1CC[C@@H]1C2=CC[C@@]2(C)[C@H]1CC[C@]2(O)C(=O)CN1CCN(c2cc(N3CCCC3)nc(N3CCCC3)n2)CC1.Cl.Cl.O [Example 74, 17α-hydroxy-21-[4-[2,6-di-(1-pyrrolidinyl)-4-pyrimidinyl]-1-piperazinyl] pregna-1,4,9(11)-triene-3,20-dione dihydrochloride hydrate] | demonstrate arachidonic acid antagonism |
| C[C@]12CC(=O)[C@H]3[C@@H](CCC4=CC(=O)CC[C@@]43C)[C@@H]1CC[C@@H]2C(=O)CN1CCN(c2ccccn2)CC1.Cl.O [Example 45, 21-[4-(2-pyridinyl)-1-piperazinyl]pregn-4-ene-3,11,20-trione hydrochloride hydrate] | demonstrate arachidonic acid antagonism |
| COc1ccc(CCN(CC(=O)[C@@]2(O)CC[C@H]3[C@@H]4CCC5=CC(=O)CC[C@]5(C)C4=CC[C@@]32C)Cc2ccc(N(C)C)cc2)cc1OC [Example 51, 17α-hydroxy-21-[[2-(3,4-dimethoxyphenyl)ethyl]-4-(dimethylamino)-phenyl]methyl]amino]pregna-4,9(11)-3,20-dione hydrochloride] | demonstrate arachidonic acid antagonism |
| CCN(CC)c1cc(N2CCN(CC(=O)[C@@]3(O)CC[C@H]4[C@@H]5CCC6=CC(=O)CC[C@]6(C)[C@H]5CC[C@@]43C)CC2)nc(N(CC)CC)n1 [Example 53, 21-[4-[2,6-bis(diethylamino)4-pyrimidinyl]-1-piperazinyl]-17α-hydroxypregn-4-ene-3,20-dione] | demonstrate arachidonic acid antagonism |
| COc1cccc(N2CCN(CC(=O)[C@@]3(O)CC[C@H]4[C@@H]5CCC6=CC(=O)CC[C@]6(C)C5=CC[C@@]43C)CC2)n1.CS(=O)(=O)O [Example 22, 17α-hydroxy-21-[4-(6-methoxy-2-pyridinyl)-1-piperazinyl]pregna-4,9(11)-diene-3,20-dione monomethanesulfonate] | demonstrate arachidonic acid antagonism |

Tested on: angiogenesis
Experiment: Chick embryo assay of Folkman (inhibition of angiogenesis / tumor growth)
Assay type: in vivo
Conditions: 50 μg/10 μl in the presence of heparin
Method: According to this procedure compounds which are considered to be "active" (i.e. antiangiogenic) give an avascular zone of 4 mm or greater in some embryos when tested at 50 μg/10 μl in the presence of 50 μg/10μ of heparin.

| SMILES | inhibition of angiogenesis (activity in words) | % of Embryos with 4 mm or Greater Avascular Zone |
| --- | --- | --- |
| CCN(CC)c1cc(N2CCN(CC(=O)[C@@]3(O)CC[C@H]4[C@@H]5C[C@H](C)C6=CC(=O)C=C[C@]6(C)C5=CC[C@@]43C)CC2)nc(N(CC)CC)n1 [Example 63, 21-[4-[2,6-bis(diethylamino)-4-pyrimidinyl]-1-piperaz-inyl]-17α-hydroxy-6α-methylpregna-1,4,9(11)-triene-3,20-dione (E)-2-butenedioate (1:1) salt] | demonstrate inhibition of angiogenesis | – |
| C[C@]12CCC(=O)C=C1CC[C@@H]1C2=CC[C@@]2(C)[C@H]1CC[C@]2(O)C(=O)CN1CCN(C(=O)c2ccco2)CC1 [Example 6B, 17α-Hydroxy-21-[4-(2-furonylcarbonyl)-1-piperazinyl]pregna-4,9(11)-diene-3,20-dione] | demonstrate inhibition of angiogenesis | – |
| CCN(CC)c1cc(N2CCN(CC(=O)[C@@]3(O)CC[C@H]4[C@@H]5CCC6=CC(=O)CC[C@]6(C)C5=CC[C@@]43C)CC2)nc(N(CC)CC)n1 [Example 16, 17α-Hydroxy-21-[4-[2,6-bis(diethylamino)pyrimidinyl]-1-piperazinyl]pregna-4,9(11)-diene-3,20-dione dihydrochloride hydrate] | – | 91% |
| C[C@]12CCC(=O)C=C1CC[C@@H]1C2=CC[C@@]2(C)[C@H]1CC[C@]2(O)C(=O)CN1CCN(c2cc(N3CCCC3)nc(N3CCCC3)n2)CC1 [Example 64, 17α-hydroxy-21-[4-[2,6-bis(1-pyrrolidinyl)-4-pyrimidinyl]-1-piperazinyl]-pregna-4,9(11)-diene-3,20-dione (E)-2-butenedioate (1:1) salt] | demonstrate inhibition of angiogenesis | – |
| C[C@]12CCC(=O)C=C1CC[C@@H]1[C@@H]2C(=O)C[C@@]2(C)[C@H]1CC[C@]2(O)C(=O)CN1CCN(c2ccccn2)CC1 [Example 20] | demonstrate inhibition of angiogenesis | 72% |
| COc1ccc(CCNCC(=O)[C@@]2(O)CC[C@H]3[C@@H]4C[C@H](C)C5=CC(=O)C=C[C@]5(C)[C@H]4[C@@H](O)C[C@@]32C)cc1OC [Example 34, 11β,17α-dihydroxy-21-[[2-(3,4-dimethoxy-phenyl)ethyl]amino]-6α-methylpregna-1,4-diene-3,20-dione hydrochloride] | demonstrate inhibition of angiogenesis | – |
| C[C@]12CC[C@@H](O)C[C@H]1CC[C@@H]1[C@@H]2C(=O)C[C@@]2(C)[C@H]1CC[C@]2(O)C(=O)CN1CCN(c2ccccn2)CC1 [Example 99, 3α,17α-dihydroxy-21-[4-(2-pyridinyl)-1-piperazinyl]-5β-pregnane-11,20-dione dihydrochloride hydrate] | demonstrate inhibition of angiogenesis | – |
| COc1ccc(N2CCN(CC(=O)[C@@]3(O)CC[C@H]4[C@@H]5CCC6=CC(=O)CC[C@]6(C)[C@H]5[C@H](OC(=O)CC(C)(C)C)C[C@@]43C)CC2)cc1 [Example 32, 11α,17α-dihydroxy-21-[4-(4-methoxyphenyl)-1-piperazinyl]pregn-4-ene-3,20-dione 11-(3,3-dimethyl-1-butyrate) dihydrochloride] | demonstrate inhibition of angiogenesis | – |
| COc1ccc(N2CCN(CC(=O)[C@@]3(O)CC[C@H]4[C@@H]5C[C@H](C)C6=CC(=O)C=C[C@]6(C)[C@H]5[C@@H](O)C[C@@]43C)CC2)cc1 [Example 33, 11β,17α-dihydroxy-21-[4-(4-methoxyphenyl)-1-piperazinyl]-6α-methylpregna-1,4-diene-3,20-dione dihydrochloride] | demonstrate inhibition of angiogenesis | – |
| C[C@]12C[C@@H](O)[C@H]3[C@@H](CCC4=CC(=O)CC[C@@]43C)[C@@H]1CC[C@@H]2C(=O)CN1CCN(c2ccccn2)CC1.Cl.Cl [Example 36, 11α-hydroxy-21-[4-(2-pyridinyl)-1-piperazinyl]-pregn-4-ene-3,20-dione dihydrochloride] | demonstrate inhibition of angiogenesis | – |
| C[C@H]1C[C@H]2[C@@H]3CC[C@H]4CC(=O)CC[C@]4(C)C3=CC[C@]2(C)[C@@]1(O)C(=O)CN1CCN(c2ccccn2)CC1.Cl.Cl.O [Example 44, 17α-hydroxy-16β-methyl-21-[4-(2-pyridinyl)-1-piperazinyl]-5α-pregn-9(11)-ene-3,20-dione dihydrochloride hydrate] | – | 75% |
| CC(C)(C)CC(=O)O[C@@H]1C[C@@]2(C)[C@@H](CC[C@]2(O)C(=O)CN2CCN(c3ccccn3)CC2)[C@@H]2CCC3=CC(=O)CC[C@]3(C)[C@H]21 [Example 28, 11α,17α-Dihydroxy-21-[4-(2-pyridinyl)-1-piperazinyl]pregn-4-ene-3,20-dione 11-(3,3-dimethyl-1-butyratedihydrochloride] | – | 73% |
